Experimental findings from US9624214B2, “Amino-substituted imidazo[1,2-a]pyridinecarboxamides and their use” (BAYER PHARMA AKTIENGESELLSCHAFT, priority 2012, dated 2017) are described below.

SMILES strings stand for the structures.

This assay concerns the target T1, recombinant guanylate cyclase reporter cell line (Rattus norvegicus, UniProt P19686+P20595).
T1 construct: expressed in transfected cells
T1 sequence (P20595 1-619): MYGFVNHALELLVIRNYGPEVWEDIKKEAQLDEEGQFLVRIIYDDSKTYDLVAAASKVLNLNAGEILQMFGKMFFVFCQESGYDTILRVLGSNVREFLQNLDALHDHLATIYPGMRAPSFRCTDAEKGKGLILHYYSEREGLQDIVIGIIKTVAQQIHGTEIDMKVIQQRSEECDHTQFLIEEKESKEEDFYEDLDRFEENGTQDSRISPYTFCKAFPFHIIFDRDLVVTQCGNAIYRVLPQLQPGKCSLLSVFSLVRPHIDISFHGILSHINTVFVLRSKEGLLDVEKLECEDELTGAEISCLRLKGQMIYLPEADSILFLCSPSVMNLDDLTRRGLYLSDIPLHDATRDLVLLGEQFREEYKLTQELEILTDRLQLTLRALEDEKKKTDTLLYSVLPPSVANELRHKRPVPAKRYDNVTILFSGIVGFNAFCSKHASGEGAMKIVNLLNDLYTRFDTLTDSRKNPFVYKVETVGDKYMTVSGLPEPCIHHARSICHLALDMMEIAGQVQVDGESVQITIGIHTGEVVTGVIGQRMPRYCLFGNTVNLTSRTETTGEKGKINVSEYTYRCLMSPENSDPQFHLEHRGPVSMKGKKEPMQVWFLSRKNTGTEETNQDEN
T1 sequence (P19686 1-690): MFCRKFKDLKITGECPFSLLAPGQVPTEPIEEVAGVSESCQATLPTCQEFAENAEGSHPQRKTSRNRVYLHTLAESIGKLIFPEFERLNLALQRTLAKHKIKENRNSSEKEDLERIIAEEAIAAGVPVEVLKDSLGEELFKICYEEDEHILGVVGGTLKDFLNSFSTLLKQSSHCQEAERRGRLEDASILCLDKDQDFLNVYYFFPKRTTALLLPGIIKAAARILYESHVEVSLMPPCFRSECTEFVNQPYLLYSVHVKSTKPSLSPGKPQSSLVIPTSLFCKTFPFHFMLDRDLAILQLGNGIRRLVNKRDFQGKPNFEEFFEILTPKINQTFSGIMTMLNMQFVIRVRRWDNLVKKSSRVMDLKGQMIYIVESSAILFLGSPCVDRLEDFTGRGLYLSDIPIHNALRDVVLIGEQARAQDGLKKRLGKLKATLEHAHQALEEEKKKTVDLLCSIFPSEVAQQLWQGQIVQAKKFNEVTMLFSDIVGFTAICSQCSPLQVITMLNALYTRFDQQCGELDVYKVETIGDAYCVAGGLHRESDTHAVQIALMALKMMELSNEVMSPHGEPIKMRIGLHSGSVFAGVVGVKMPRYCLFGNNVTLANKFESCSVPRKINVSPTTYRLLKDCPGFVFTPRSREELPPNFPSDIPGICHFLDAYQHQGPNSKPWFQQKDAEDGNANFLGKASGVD
The experiment in a line: B-2. Action on recombinant guanylate cyclase reporter cell line. Conditions: MEC = minimal effective concentration; in some cases mean values from individual determinations. The format is cell-based. Summed up:
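Compounds are tested on whole cells carrying a guanylate cyclase reporter construct. The lowest concentration giving an effect is recorded as the MEC.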

As to `Cc1cc(OCc2c(F)cccc2F)c2nc(C)c(C(=O)NCC(C)N3CCOCC3)n2c1` (single isomer, unassigned; ent-8) [Example 186, ent-8-[(2,6-Difluorobenzyl)oxy]-2,6-dimethyl-N-[2-(morpholin-4-yl)propyl]imidazo[1,2-a]-pyridine-3-carboxamide], the MEC was 0.30 µM.

With `Cc1cc(OCc2c(F)cccc2F)c2nc(C)c(C(=O)NCC(C)N3CCOCC3)n2c1` (single isomer, unassigned; ent-8) [Example 187, ent-8-[(2,6-Difluorobenzyl)oxy]-2,6-dimethyl-N-[2-(morpholin-4-yl)propyl]imidazo[1,2-a]-pyridine-3-carboxamide], the MEC came out at 0.30 µM. With `Cc1nc2c(OCc3c(F)cccc3F)cccn2c1C(=O)NCC(C(C)C)N(C)C` (single isomer, unassigned; ent-8) [Example 188, ent-8-[(2,6-Difluorobenzyl)oxy]-N-[2-(dimethylamino)-3-methylbutyl]-2-methylimidazo[1,2-a]-pyridine-3-carboxamide], the MEC was determined as 1.00 µM. For `Cc1nc2c(OCc3c(F)cccc3F)cccn2c1C(=O)NCC(C(C)C)N(C)C` (single isomer, unassigned; ent-8) [Example 189, ent-8-[(2,6-Difluorobenzyl)oxy]-N-[2-(dimethylamino)-3-methylbutyl]-2-methylimidazo[1,2-a]-pyridine-3-carboxamide] the value was 3.00 µM; for `Cc1nc2c(OCc3c(F)cccc3F)cccn2c1C(=O)NC(CNCC(F)(F)F)c1ccc(F)c(F)c1` (single isomer, unassigned; ent-8) [Example 222, ent-8-[(2,6-Difluorobenzyl)oxy]-N-{1-(3,4-difluorophenyl)-2-[(2,2,2-trifluoroethyl)amino]ethyl}-2-methylimidazo[1,2-a]pyridine-3-carboxamide], 0.30 µM; for `CCC1CC(NC(=O)c2c(C)nc3c(OCc4c(F)cccc4F)cc(C)cn23)c2nc(C(F)(F)F)ccc2N1` (single isomer, unassigned; ent-8) [Example 325, ent-8-[(2,6-Difluorobenzyl)oxy]-N-[2-ethyl-6-(trifluoromethyl)-1,2,3,4-tetrahydro-1,5-naphthyridin-4-yl]-2,6-dimethylimidazo[1,2-a]pyridine-3-carboxamide], 0.30 µM.

In the case of `Cc1cc(OCc2c(F)cccc2F)c2nc(C)c(C(=O)NC3CC(C)Nc4ccc(C(F)(F)F)nc43)n2c1` (single isomer, unassigned; ent-8) [Example 326, ent-8-[(2,6-Difluorobenzyl)oxy]-2,6-dimethyl-N-[2-methyl-6-(trifluoromethyl)-1,2,3,4-tetrahydro-1,5-naphthyridin-4-yl]imidazo[1,2-a]pyridine-3-carboxamide], the MEC worked out at 0.30 µM. As for `Cc1nc2c(OCc3c(F)cccc3F)cccn2c1C(=O)NC1CC2CCCC(C1)N2C1CC1` (centres unmarked) [Example 1, N-(9-Cyclopropyl-9-azabicyclo[3.3.1]non-3-yl)-8-[(2,6-difluorobenzyl)oxy]-2-methylimidazo[1,2-a]pyridine-3-carboxamide], the figure is 0.10 µM.

Turning to `Cc1nc2c(OCc3c(F)cccc3F)cccn2c1C(=O)NC(CN)c1ccc(F)cc1F` (stereo not drawn) [Example 21, ent-N-[2-Amino-1-(2,4-difluorophenyl)ethyl]-8-[(2,6-difluorobenzyl)oxy]-2-methylimidazo[1,2-a]-pyridine-3-carboxamide], the MEC came out at 0.30 µM. As for `Cc1nc2c(OCc3c(F)cccc3F)cc(Cl)cn2c1C(=O)NC(C)CN` (stereo not drawn) [Example 22, ent-N-(1-aminopropan-2-yl)-6-chloro-8-[(2,6-difluorobenzyl)oxy]-2-methylimidazo[1,2-a]-pyridine-3-carboxamide], the figure is 0.30 µM; as for `Cc1nc2c(OCc3c(F)cccc3F)cc(Cl)cn2c1C(=O)NC(C)(C)CN` [Example 24, N-(1-amino-2-methylpropan-2-yl)-6-chloro-8-[(2,6-difluorobenzyl)oxy]-2-methylimidazo[1,2-a]pyridine-3-carboxamide], 0.65 µM.
